Where “and” joins values, the source holds several entries; their conditions need not be identical. Identical values can stand only once. Like-named read-outs stand apart in the source and are kept apart here.
Key:
[1] = target: T1, delta opioid receptor (Mus musculus, UniProt P32300); assay: [35S]GTPγS binding assay in NG108-15 cell membranes (delta opioid functional assay); assay type: biochemical; settings: for inhibition at 10 µM: read-out: GTPγS δ-opioid receptor % Inh @10 μM, 10 μM
T1 construct: NG108-15 cell membranes were purchased from Applied Cell Sciences (Rockville, Md.); host or cells: NG108-15 cell membranes (purchased)

[2] = target: T1, delta opioid receptor; assay: as above; assay type: biochemical; settings: for GTPγS δ-Rel Efficacy @200 nM: 200 nM compound, relative to calculated max of SNC80 dose response
Protocol: Methods: NG108-15 cell membranes were purchased from Applied Cell Sciences (Rockville, Md.). 5 mg/mL of membrane protein was suspended in 10 mM TRIS-HCl pH 7.2, 2 mM EDTA, 10% sucrose. Membranes were maintained at 4-8° C. A 1 mL volume of membranes was added into 10 mL cold binding assay buffer. The assay buffer contained 50 mM Tris, pH 7.6, 5 mM MgCl2, 100 mM NaCl, 1 mM DTT and 1 mM EGTA. The membrane suspension was homogenized twice with a Polytron, and centrifuged at 3000 rpm for 10 min. The supernatant was then centrifuged at 18,000 rpm for 20 min. Ten mL assay buffer was added into the pellet containing tube. The pellet and buffer were mixed with a Polytron.
Incubation procedure: The pellet membranes (75 μg/mL) were preincubated with SPA (10 mg/mL) at 25° C. for 45 min in the assay buffer. […] 200 nM of receptor agonists was used to stimulate [^35S]-GTPγS binding. The basal binding was tested in the absence of agonists and non-specific binding was tested in the presence of 10 μM unlabeled GTPγS.
Data % of Basal=(stimulated−non specific)*100/(basal−non specific). Relative Efficacy of a compound at 200 nM=(% of Basal of test compound at 200 nM)/(Calculated Max of SNC80 dose response. Curve in prism).

[3] = target: T1, delta opioid receptor; assay: NG108-15, 24-well delta opioid receptor binding assay; settings: NG108-15 cell membranes, ~0.2 nM [3H]Naltrindole; read-out: δ-binding NG108 cell membrane Ki
Protocol: Methods: NG108-15 cell membranes were purchased from Applied Cell Sciences (Rockville, Md.). 5 mg/mL of membrane protein was suspended in 10 mM TRIS-HCl pH 7.2, 2 mM EDTA, 10% sucrose. With several brief pulses from a Polytron homogenizer, each vial was homogenized in 5 mls of 50 mM Tris Buffer, pH 7.4. The homogenate was diluted in 50 mM Tris Buffer containing 5 mM MgCl2 to 330 ug/ml in the working solution for a final concentration of 133 ug/well. This particulate preparation was used for the 24-well delta opioid binding assay.
Following incubation with the delta selective ligand ˜0.2 nM [^3H]Naltrindole at 25° C. for 2.5 h in a 24-well plate with total volume of 1 mL, the plate contents were filtered through a UniFilter24, GF/B. This plate was presoaked in 0.3% PEI and filtered through a 24-well Harvester. The UniFilter24 was rinsed three times with 2 mL of 10 mM HEPES (pH 7.4), and dried in an oven at 37° C. for 1.5 hours. To each well, was added 150 μL of Scint0 (PerkinElmer, Cat#6013611). The plates were then read on a TopCount.
Analysis: The data from the scintillation counter were used to calculate either the % inhibition compared to control binding (when only a single concentration of test compound was evaluated) or a Ki value (when a range of concentrations was tested). Non-specific binding (N.S.—1 mM Naloxone) is used as the negative control, while the Total Binding (T.B.—Membrane and ligand only) is used as the positive control. If one concentration is screened, the % inhibition is calculated as (cpms of total binding minus cpms of compound) divided by (cpms of T.B. minus cpms of N.S). The triplicate % Inhibitions are averaged and reported. If multiple concentrations are generated, the values are analyzed using the one-site binding non-linear regression program in Prism to determine Ki values. The bottom and top values are globally shared. The triplicate Kis are then averaged and reported.

[4] = target: T2, delta opioid receptor (Rattus norvegicus, UniProt P33533); assay: Rat brain delta opioid receptor binding assay
T2 construct: the forebrains were homogenized in Tris buffer in a Teflon®-glass homogenizer; from tissue; host or cells: forebrain of male Wistar rats, particulate membrane preparation
Protocol: (§1) Procedure: Male, Wistar rats (150-250 g, VAF, Charles River, Kingston, N.Y.) were killed by CO2, and their brains were removed and placed immediately in ice cold Tris HCl buffer (50 mM, pH 7.4). The forebrains were separated from the remainder of the brain by a coronal transection, beginning dorsally at the colliculi and passing ventrally through the midbrain-pontine junction. After dissection, the forebrains were homogenized in Tris buffer in a Teflon®-glass homogenizer. The homogenate was diluted to a concentration of 1 g of forebrain tissue per 80 mL Tris and centrifuged at 39,000×g for 10 min. The pellet was resuspended in the same volume of Tris buffer containing 5 mM MgCl2 with several brief pulses from a Polytron homogenizer. This particulate preparation was used for the delta opioid binding assays. Following incubation with the delta selective peptide ligand ˜4 nM [^3H]DPDPE or 0.25 nM [^3H]naltrindole at 25° C. for 2.5 h in a 96-well plate with total volume of […], the plate contents were filtered through Wallac filtermat B sheets on a Tomtec 96-well harvester. […] To each sample area 2×50 μL of Betaplate Scint scintillation fluid (LKB) was added and the radioactivity was quantified on a LKB (Wallac) 1205 BetaPlate liquid scintillation counter.
(§2) Analysis: The data from the scintillation counter was used to calculate either the % inhibition compared to control binding (when only a single concentration of test compound was evaluated) or a Ki value (when a range of concentrations was tested). Percent inhibition was calculated as: [(total dpm−test compound dpm)/(total dpm-nonspecific dpm)]*100. Kd and Ki values were calculated using GraphPad PRISM data analysis program.

[5] = target: T3, mu opioid receptor (Rattus norvegicus, UniProt P33535); assay: Rat brain mu opioid receptor binding assay
T3 construct: the forebrains were homogenized in Tris buffer in a Teflon®-glass homogenizer; from tissue; host or cells: forebrain of male Wistar rats, particulate membrane preparation
Protocol: as §1, with “mu” for “delta”, “ligand, ˜0.8” for “ligand ˜4”, “[^3H]DAMGO,” for “[^3H]DPDPE or 0.25 nM [^3H]naltrindole”, “total assay” for “total”, “2×40” for “2×50”, “quantifed” for “quantified”
as §2

[6] = target: T4, mu opioid receptor (CHO-hMOR cell membranes) (Homo sapiens, UniProt P35372); assay: [35S]GTPγS binding assay in CHO-hMOR cell membranes (mu opioid functional assay); assay type: biochemical
T4 construct: host or cells: CHO cells (membranes purchased)

[7] = read-out: GTPγS δ-opioid receptor EC50
[8] = rat forebrain membranes, 0.25 nM [3H]naltrindole, read-out: δ-binding (Naltrindole ligand) Ki
[9] = rat forebrain membranes, ~0.8 nM [3H]DAMGO, read-out: μ-binding Ki

T1 sequence (P32300 whole entry): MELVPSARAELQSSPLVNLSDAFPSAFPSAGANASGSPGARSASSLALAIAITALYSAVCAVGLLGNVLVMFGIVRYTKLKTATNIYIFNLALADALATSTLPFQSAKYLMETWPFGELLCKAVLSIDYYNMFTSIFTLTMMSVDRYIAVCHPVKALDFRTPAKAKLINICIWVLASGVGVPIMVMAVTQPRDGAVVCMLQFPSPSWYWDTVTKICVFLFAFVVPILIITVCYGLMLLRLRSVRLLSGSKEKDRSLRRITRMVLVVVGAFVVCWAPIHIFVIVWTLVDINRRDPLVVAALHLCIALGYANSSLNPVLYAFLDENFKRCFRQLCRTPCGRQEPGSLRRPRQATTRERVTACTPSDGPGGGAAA
T3 sequence (P33535 whole entry): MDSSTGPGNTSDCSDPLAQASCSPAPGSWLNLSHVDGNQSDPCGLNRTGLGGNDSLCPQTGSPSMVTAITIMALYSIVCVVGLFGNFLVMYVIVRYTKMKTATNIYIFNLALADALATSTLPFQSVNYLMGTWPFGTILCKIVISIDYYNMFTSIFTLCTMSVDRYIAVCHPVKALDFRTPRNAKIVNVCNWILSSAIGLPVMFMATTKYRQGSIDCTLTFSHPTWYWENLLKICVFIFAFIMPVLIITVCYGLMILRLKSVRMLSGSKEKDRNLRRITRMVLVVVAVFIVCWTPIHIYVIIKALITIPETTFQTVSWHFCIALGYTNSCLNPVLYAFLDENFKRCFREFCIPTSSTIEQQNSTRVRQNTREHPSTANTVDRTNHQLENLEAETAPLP
T2 sequence (P33533 whole entry): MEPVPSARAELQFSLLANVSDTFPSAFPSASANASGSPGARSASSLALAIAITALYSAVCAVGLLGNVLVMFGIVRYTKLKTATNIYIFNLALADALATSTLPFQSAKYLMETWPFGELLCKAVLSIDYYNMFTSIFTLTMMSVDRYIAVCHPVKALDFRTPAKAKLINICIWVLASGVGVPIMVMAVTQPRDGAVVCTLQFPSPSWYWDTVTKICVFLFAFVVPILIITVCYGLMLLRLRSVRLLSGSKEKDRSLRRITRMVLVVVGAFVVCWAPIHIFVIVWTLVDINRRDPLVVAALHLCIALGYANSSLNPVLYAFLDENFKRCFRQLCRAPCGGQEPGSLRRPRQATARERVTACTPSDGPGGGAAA
T4 sequence (P35372 whole entry): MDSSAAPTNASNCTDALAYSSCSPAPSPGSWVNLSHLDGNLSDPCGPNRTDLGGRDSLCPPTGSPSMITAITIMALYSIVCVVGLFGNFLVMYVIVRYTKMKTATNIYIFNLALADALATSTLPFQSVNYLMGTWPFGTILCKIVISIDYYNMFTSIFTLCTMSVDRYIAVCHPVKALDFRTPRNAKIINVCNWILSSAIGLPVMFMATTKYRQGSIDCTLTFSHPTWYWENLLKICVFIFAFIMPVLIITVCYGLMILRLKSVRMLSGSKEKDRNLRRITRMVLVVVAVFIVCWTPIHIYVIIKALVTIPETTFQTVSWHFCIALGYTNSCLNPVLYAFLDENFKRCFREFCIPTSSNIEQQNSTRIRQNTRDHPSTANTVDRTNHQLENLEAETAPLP

Compound | GTPγS δ-opioid receptor % Inh @10 μM [1] [%] | EC50 [2, 7] [nM] | GTPγS δ-opioid receptor Rel Efficacy [2] | Ki [3] [nM] | inhibition at 10 µM [1] [%] | Ki [4, 8] [nM] | Ki [5, 9] [nM] | Ki [4] [nM] | Ki [5] [nM] | also measured
N-{2-[2,4-Bis-(4-methoxy-phenoxy)-pyrimidin-5-ylamino]ethyl}-guanidine [Cpd 44] | 15.636 | 1110 | – | – | – | – | – | – | – | –
COc1ccc(Oc2nc(Sc3cccc(F)c3)ncc2NC[C@@H]2CCCN2)cc1 [Cpd 47] | – | 193 | 1.079 | 0.739 | – | – | – | – | – | GTPγS δ-Rel Efficacy @200 nM [2]: 0.481
COc1ccc(Oc2nc(C#Cc3ccccc3)ncc2NC[C@@H]2CCCN2)cc1 [Cpd 4, [4-(4-Methoxy-phenoxy)-2-phenylethynyl-pyrimidin-5-yl]-pyrrolidin-2-(S)-ylmethyl-amine] | – | – | – | – | 8.94 | 16.3 | 4420 | – | – | EC50 ([2]; GTPγS δ-opioid receptor EC50): 1030 nM
COc1ccc(Oc2ncc(NC3CCCC(N)C3)c(Oc3ccc(OC)cc3)n2)cc1 (stereo not drawn) [Cpd 3] | 19.733 | – | 1.106 | – | 12.8 | 16.1 | 1670 | – | – | EC50 ([2]; GTPγS δ-opioid receptor EC50): 559 nM and 92 nM and 206 nM
[2-(3-Fluoro-phenoxy)-4-(4-methoxy-phenoxy)-pyrimidin-5-yl]-pyrrolidin-2-(S)-ylmethyl-amine [Cpd 46] | – | 28 | 0.983 | 0.288 | – | – | – | – | – | GTPγS δ-Rel Efficacy @200 nM [2]: 0.770
CCN(CC)C(=O)c1ccc(Oc2ncc(NC[C@@H]3CCCN3)c(Oc3ccc(OC)cc3)n2)cc1 [Cpd 5, N,N-Diethyl-4-{4-(4-methoxy-phenoxy)-5-[(pyrrolidin-2-(S)-ylmethyl)-amino]pyrimidin-2-yloxy}-benzamide] | – | 2620 | – | – | 26.4 | – | – | 18.3 | 18.2 | –
COc1ccc(Oc2nc(Oc3cccnc3)ncc2NC[C@@H]2CCCN2)cc1 [Cpd 45] | – | 734 | 1.178 | 1.45 | – | – | – | – | – | –
COc1ccc(Oc2ncc(NC[C@@H]3CCCN3)c(Oc3ccc(OC)cc3)n2)cc1 [Cpd 1, [2,4-Bis-(4-methoxyphenoxy)pyrimidin-5-yl]pyrrolidin-2-(S)-ylmethylamine] | – | – | – | – | – | – | – | 5.9 | 3880 | EC50 ([6]; CHO-hMOR cell membranes, read-out: GTPγS μ-opioid receptor EC50): 84300 nM; inhibition at 10 µM ([6]; read-out: GTPγS μ-opioid receptor % Inh @10 μM): 19.5%
COc1ccc(Oc2ncc(NCC3CCCN3)c(Oc3ccc(OC)cc3)n2)cc1 (stereo not drawn) [Cpd 7] | 20.645 | 221 | – | – | – | 68.4 | 2850 | – | – | –
COc1ccc(Oc2ncc(NC3CCCNC3)c(Oc3ccc(OC)cc3)n2)cc1 (stereo not drawn) [Cpd 2] | – | 828 | – | – | 8.16 | – | – | 7.61 | 2440 | –
